In US10357496B2, “Methods, formulations, and kits for rapidly repleting folate levels in women” (SOUTH ALABAMA MEDICAL SCIENCE FOUNDATION, priority 2011, dated 2019):
Blank lines part the entries; values can stand above or below the compound they belong to.

What was measured:
[1] = Trial A: serum B12 by Immulite 2000 assay; format: in vivo, women; details: three daily 0.5 mg doses, by 72 hours, subjects (n=6) with screening values below 330 pg/mL
Description: Serum B12 was determined using the Immulite 2000 assay.
The average vitamin B12 levels specifically for those subjects (n=6) with screening values below 330 pg/mL are shown in FIG. 2 (dotted line). By 72 hours after initiation of the three doses, serum B12 increased on average by about 80 pg/mL, and then fell slightly. Levels below 200 pg/mL are considered to be deficient, and those between 200 and 350 pg/mL are generally considered to be low-normal. Data beyond day 5 are not available for this trial, since only one of those with sub-optimal B12 status volunteered to continue.

Trial B: serum B12 = format: in vivo, women
Source text: It is believed that this may be due to uptake of the plasma B12 into the tissues of the deficient or mildly deficient subjects. None the less, by day 12 nearly half of the subjects were still in the normal range.

[2] = Description: A study of the rate of increase of serum folate with 5-methyl-6S-tetrahydrofolate (6S-5-MTHF) was performed with women of child bearing age (final range: 20 to 44 years old). Volunteers were screened for fasting serum folate, and the lower quintile enrolled (n=21 participants). On the first day, a baseline fasting blood sample was obtained using a serum separator tube, and then a 7.5 mg (16.3 micromoles) oral dose of 6S-5-MTHF along with 0.5 mg of cyanocobalamin was administered. After 24 hours (day 2) and again after 48 hours (day 3) fasting blood samples were withdrawn, and the same doses of 6S-5-MTHF and vitamin B12 were administered. At 72 hours (day 4) and 96 hours (day 5), further blood samples were withdrawn, but without administration of vitamins for the first 10 Subjects.
These subjects returned on days 12 and 19 to provide serum samples. Compliance was established by counting the excess tablets at the end of the study.
The serum samples were frozen and then initially analyzed for total folate using the Immulite 2000 competitive binding assay, and later by microbiological assay using L. rhamnosus. Serum B12 was determined using the Immulite 2000 assay. This study and the following trials B and C were performed with approval by the Institutional Review Board of the University of South Alabama.

[3] = Trial B
Description: (§1) The 21 volunteers with a value below 25 nM serum folate at screening ranged between 20 to 44 years old.

[4] = Trial B; microbiological assay
Description: as §1

[5] = format: in vivo, women
recurrent NTD = details: 4 mg/day; cited from earlier work
NTD = details: 400 μg/d, cited from earlier work
[6] = cited from earlier work
[7] = cited from earlier work; remark: listed apart in the source
heart defects = details: periconceptional use; cited from earlier work
cleft lip/palate = details: periconceptual administration; cited from earlier work
[8] = test system: mice homozygous for loss of folate binding protein 1; details: 10.75 to 43.0 micromoles/kg/day; untreated mice died in utero; optimal between days E7-E9; cited from earlier work
[9] = after 4 weeks of 800 μg (Brämswig et al.)

average increase of serum B12 [1]: about 80 pg/mL
half life of fall of serum B12 after discontinuation (Trial B: serum B12; Trial B, after three daily 1.0 mg doses, approximate exponential): about 2%
Compound: cyanocobalamin
rate of increase of serum B12 (Trial B: serum B12; Trial B three daily 1.0 mg doses versus Trial A 0.5 mg doses): considerably greater than observed with the 0.5 mg doses
subjects with serum B12 still in the normal range by day 12 (Trial B: serum B12; Trial B, after three daily 1.0 mg doses): nearly half
subjects with serum B12 in the normal range by day 4 (Trial B: serum B12; Trial B, three daily 1.0 mg doses): 88%

total folate of all subjects by the fourth day ([2]; in vivo): above 55 nM
total folate of all subjects by the third day ([2]; in vivo): above 44 nM
average serum level maintained over the next two weeks ([3]; 0.8 mg/d 6S-5-MTHF starting on day 4): higher than 66 nM
average serum 5-MTHF, day 5 ([3]; 48 hours after last 7.5 mg dose, 0.8 mg/d maintenance from day 4): 74 nM
average serum 5-MTHF, day 4 ([3]; five 7.5 mg doses every 12 hours, 24 hours after last 7.5 mg dose): 98 nM
Compound: CN1c2c(nc(N)[nH]c2=O)NC[C@@H]1CNc1ccc(C(=O)N[C@@H](CCC(=O)O)C(=O)O)cc1 [6S-5-MTHF, 5-methyl-6S-tetrahydrofolate]
number of subjects not reaching greater than 37 nM serum total folate by the second day ([2]; Trial A): three
percent of subjects not reaching greater than 37 nM serum total folate by the second day ([2]; Trial A): 15%
total folate: women below 50 nM during the study [4]: only a single person was ever below 50 nM

highest serum total folate in any measurement, single slow-responding subject ([5]; female, human, in vivo): ≤ 32 nM
Compound: Nc1nc2ncc(CNc3ccc(C(=O)N[C@@H](CCC(=O)O)C(=O)O)cc3)nc2c(=O)[nH]1 [folic acid]
number of subjects below 44 nM total folate by the third day ([5]; Trial C): 9
number of subjects below 50 nM total folate by the fourth day ([5]; Trial C): 10
percent of subjects failing to achieve greater than 37 nM serum total folate by the second day ([5]; Trial C): 40%
number of subjects failing to achieve greater than 37 nM serum total folate by the second day ([5]; Trial C, of 20): 8
recurrent NTD prevented compared to the control group (recurrent NTD): 72%
NTD cases after treatment, southern region (NTD; 10 per 10,000 births before intervention): 6 per 10,000
NTD cases after treatment, northern region (NTD; 48 per 10,000 births before intervention): 10 per 10,000
average plasma folate level [6, 9]: 50 nM
average red cell folate level [7, 9]: 919 nM
time of treatment to elevate red cell concentrations to 906 nM ([7]; daily dose of 800 μg): 4.2±3.5 weeks
decrease in the prevalence of heart defects (heart defects): 20%
reduction in recurrence of orofacial clefts (meta-analysis) (cleft lip/palate): two thirds

Compound: Nc1nc2c(c(=O)[nH]1)N(C=O)C(CNc1ccc(C(=O)N[C@@H](CCC(=O)O)C(=O)O)cc1)CN2 (some centres unmarked) [5-formyl-tetrahydrofolate]
survival and malformations of knockout mice [8]: some of these mice survived, but were subject to malformations

Compound: CN1c2c(nc(N)[nH]c2=O)NCC1CNc1ccc(C(=O)N[C@@H](CCC(=O)O)C(=O)O)cc1 (some centres unmarked) [5-methyltetrahydrofolate]
time to reach plateau in the plasma ([6]; 400 μg/d, young women): 12 weeks
survival and malformations of knockout mice [8]: some of these mice survived, but were subject to malformations
